# Data: patent US8137705B2 (priority 2005, dated 2012)
# Key:
# Format in all cases: cell-based
# [1] = system: E. coli O157:H7; assay: E. coli O157:H7 counts in water containing rumen content or feces treated with chemicals or chemical combinations; details: for E. coli O157:H7 counts (log10 cfu/ml) at min 0 / E. coli O157:H7 counts (log10 cfu/ml) at min 2 / E. coli O157:H7 counts (log10 cfu/ml) at min 5 / E. coli O157:H7 counts (log10 cfu/ml) at min 10 / E. coli O157:H7 counts (log10 cfu/ml) at min 20 / E. coli O157:H7 counts (log10 cfu/ml) at min 30 / E. coli O157:H7 counts (log10 cfu/ml) at min 60 / E. coli O157:H7 counts (log10 cfu/ml) at min 120: 21° C.; for E. coli O157:H7 counts (log10 cfu/ml) at min 0: 0 min; for E. coli O157:H7 counts (log10 cfu/ml) at min 2: 2 min; for E. coli O157:H7 counts (log10 cfu/ml) at min 5: 5 min; for E. coli O157:H7 counts (log10 cfu/ml) at min 10: 10 min; for E. coli O157:H7 counts (log10 cfu/ml) at min 20: 20 min; for E. coli O157:H7 counts (log10 cfu/ml) at min 30: 30 min; for E. coli O157:H7 counts (log10 cfu/ml) at min 60: 60 min; for E. coli O157:H7 counts (log10 cfu/ml) at min 120: 120 min
# [2] = system: E. coli O26:H11; assay: E. coli O26:H11 counts in water containing rumen content or feces treated with chemical combinations; details: 21° C.; for E. coli O26:H11 counts (log10 cfu/ml) at min: 0: 0 min; for E. coli O26:H11 counts (log10 cfu/ml) at min: 2: 2 min; for E. coli O26:H11 counts (log10 cfu/ml) at min: 5: 5 min; for E. coli O26:H11 counts (log10 cfu/ml) at min: 10: 10 min; for E. coli O26:H11 counts (log10 cfu/ml) at min: 20: 20 min; for E. coli O26:H11 counts (log10 cfu/ml) at min: 30: 30 min; for E. coli O26:H11 counts (log10 cfu/ml) at min: 60: 60 min; for E. coli O26:H11 counts (log10 cfu/ml) at min: 120: 120 min
# [3] = system: E. coli O111:NM; assay: E. coli O111:NM counts in water containing rumen content or feces treated with chemical combinations; details: 21° C.; for E. coli O111:NM counts (log10 cfu/ml) at min 0: 0 min; for E. coli O111:NM counts (log10 cfu/ml) at min 2: 2 min; for E. coli O111:NM counts (log10 cfu/ml) at min 5: 5 min; for E. coli O111:NM counts (log10 cfu/ml) at min 10: 10 min; for E. coli O111:NM counts (log10 cfu/ml) at min 20: 20 min; for E. coli O111:NM counts (log10 cfu/ml) at min 30: 30 min; for E. coli O111:NM counts (log10 cfu/ml) at min 60: 60 min; for E. coli O111:NM counts (log10 cfu/ml) at min 120: 120 min
# [4] = water containing feces (20:1, v/w)
# [5] = water containing rumen content (10:1, v/w)
smiles,measurement,setting,value
"CCCC(=O)O [0.5% butyric acid, butyric acid]",inactivation of E. coli O157:H7 within 20 minutes,"[1]; butyric acid >2%, caprylic acid >0.1%, data not shown",substantial inactivation
same,E. coli O157:H7 counts (log10 cfu/ml) at min 0,[1]; [4],6.0 log10 cfu/ml
same,E. coli O157:H7 counts (log10 cfu/ml) at min 2,[1]; [4],6.0 log10 cfu/ml
same,E. coli O157:H7 counts (log10 cfu/ml) at min 5,[1]; [4],6.0 log10 cfu/ml
same,E. coli O157:H7 counts (log10 cfu/ml) at min 10,[1]; [4],6.1 log10 cfu/ml
same,E. coli O157:H7 counts (log10 cfu/ml) at min 20,[1]; [4],6.1 log10 cfu/ml
same,E. coli O157:H7 counts (log10 cfu/ml) at min 30,[1]; [4],6.1 log10 cfu/ml
same,E. coli O157:H7 counts (log10 cfu/ml) at min 60,[1]; [4],6.0 log10 cfu/ml
same,E. coli O157:H7 counts (log10 cfu/ml) at min 120,[1]; [4],6.0 log10 cfu/ml
same,E. coli O157:H7 counts (log10 cfu/ml) at min 0,[1]; [5],5.9 log10 cfu/ml
same,E. coli O157:H7 counts (log10 cfu/ml) at min 2,[1]; [5],5.9 log10 cfu/ml
same,E. coli O157:H7 counts (log10 cfu/ml) at min 5,[1]; [5],5.9 log10 cfu/ml
same,E. coli O157:H7 counts (log10 cfu/ml) at min 10,[1]; [5],5.8 log10 cfu/ml
same,E. coli O157:H7 counts (log10 cfu/ml) at min 20,[1]; [5],5.7 log10 cfu/ml
same,E. coli O157:H7 counts (log10 cfu/ml) at min 30,[1]; [5],5.8 log10 cfu/ml
same,E. coli O157:H7 counts (log10 cfu/ml) at min 60,[1]; [5],5.6 log10 cfu/ml
same,E. coli O157:H7 counts (log10 cfu/ml) at min 120,[1]; [5],5.7 log10 cfu/ml
same,E. coli O26:H11 counts (log10 cfu/ml) at min: 0,[2]; [4],5.5 log10 cfu/ml
same,E. coli O26:H11 counts (log10 cfu/ml) at min: 2,[2]; [4],5.4 log10 cfu/ml
same,E. coli O26:H11 counts (log10 cfu/ml) at min: 5,[2]; [4],5.4 log10 cfu/ml
same,E. coli O26:H11 counts (log10 cfu/ml) at min: 10,[2]; [4],5.4 log10 cfu/ml
same,E. coli O26:H11 counts (log10 cfu/ml) at min: 20,[2]; [4],5.5 log10 cfu/ml
same,E. coli O26:H11 counts (log10 cfu/ml) at min: 30,[2]; [4],5.2 log10 cfu/ml
same,E. coli O26:H11 counts (log10 cfu/ml) at min: 60,[2]; [4],5.2 log10 cfu/ml
same,E. coli O26:H11 counts (log10 cfu/ml) at min: 120,[2]; [4],5.0 log10 cfu/ml
same,E. coli O26:H11 counts (log10 cfu/ml) at min: 0,[2]; [5],5.4 log10 cfu/ml
same,E. coli O26:H11 counts (log10 cfu/ml) at min: 2,[2]; [5],5.4 log10 cfu/ml
same,E. coli O26:H11 counts (log10 cfu/ml) at min: 5,[2]; [5],5.3 log10 cfu/ml
same,E. coli O26:H11 counts (log10 cfu/ml) at min: 10,[2]; [5],5.4 log10 cfu/ml
same,E. coli O26:H11 counts (log10 cfu/ml) at min: 20,[2]; [5],5.4 log10 cfu/ml
same,E. coli O26:H11 counts (log10 cfu/ml) at min: 30,[2]; [5],5.2 log10 cfu/ml
same,E. coli O26:H11 counts (log10 cfu/ml) at min: 60,[2]; [5],5.4 log10 cfu/ml
same,E. coli O26:H11 counts (log10 cfu/ml) at min: 120,[2]; [5],5.1 log10 cfu/ml
same,E. coli O111:NM counts (log10 cfu/ml) at min 0,[3]; [4],5.6 log10 cfu/ml
same,E. coli O111:NM counts (log10 cfu/ml) at min 2,[3]; [4],5.6 log10 cfu/ml
same,E. coli O111:NM counts (log10 cfu/ml) at min 5,[3]; [4],5.5 log10 cfu/ml
same,E. coli O111:NM counts (log10 cfu/ml) at min 10,[3]; [4],5.6 log10 cfu/ml
same,E. coli O111:NM counts (log10 cfu/ml) at min 20,[3]; [4],5.6 log10 cfu/ml
same,E. coli O111:NM counts (log10 cfu/ml) at min 30,[3]; [4],5.6 log10 cfu/ml
same,E. coli O111:NM counts (log10 cfu/ml) at min 60,[3]; [4],5.6 log10 cfu/ml
same,E. coli O111:NM counts (log10 cfu/ml) at min 120,[3]; [4],5.6 log10 cfu/ml
same,E. coli O111:NM counts (log10 cfu/ml) at min 0,[3]; [5],5.5 log10 cfu/ml
same,E. coli O111:NM counts (log10 cfu/ml) at min 2,[3]; [5],5.5 log10 cfu/ml
same,E. coli O111:NM counts (log10 cfu/ml) at min 5,[3]; [5],5.5 log10 cfu/ml
same,E. coli O111:NM counts (log10 cfu/ml) at min 10,[3]; [5],5.6 log10 cfu/ml
same,E. coli O111:NM counts (log10 cfu/ml) at min 20,[3]; [5],5.6 log10 cfu/ml
same,E. coli O111:NM counts (log10 cfu/ml) at min 30,[3]; [5],5.4 log10 cfu/ml
same,E. coli O111:NM counts (log10 cfu/ml) at min 60,[3]; [5],5.5 log10 cfu/ml
same,E. coli O111:NM counts (log10 cfu/ml) at min 120,[3]; [5],5.6 log10 cfu/ml
